Source: ChEMBL document CHEMBL1135146, “8-Methoxyquinoline-5-carboxamides as PDE4 inhibitors: a potential treatment for asthma” (Bioorg Med Chem Lett, 2002)

How the values were obtained:
Phosphodiesterase 4 = Phosphodiesterase 4 (Homo sapiens, UniProt P27815+Q08499+Q07343+Q08493); assay: Inhibition of Phosphodiesterase 4 (PDE-4) from human U937 cells; type: cell-based; conditions: u-937
[1] = Tested for the pharmacokinetic parameter in guinea pig, administered orally at 5 mg/kg; type: ADME, organism-based, Cavia porcellus; design: dose 5 mg/kg, route oral; conditions: in vivo, po
[2] = Tested for the oral bioavailability of the compound; type: ADME, organism-based, Cavia porcellus; conditions: guinea pig, in vivo, read-out: Bioavailabiility
[3] = Compound at a dose 5 mg/kg was administered orally to guinea pig and the pharmacokinetic parameter (Cmax) was reported; type: ADME, organism-based, Cavia porcellus; design: dose 5 mg/kg, route oral; conditions: in vivo, po
[4] = Tested for the half life period of the compound, intravenously; type: ADME, organism-based, Cavia porcellus; conditions: guinea pig, in vivo, iv
[5] = molecular target: Phosphodiesterase 3 (Homo sapiens) (UniProt Q14432+Q13370); assay: Inhibition of Phosphodiesterase 3 (PDE3) from human platelet at 20 uM

## COc1ccc(C(=O)Nc2c(Cl)cncc2Cl)c2cc(C(C)=O)oc12
Phosphodiesterase 4
  IC50: 1 nM

## COc1ccc(C(=O)Nc2c(Cl)cncc2Cl)c2cccnc12
[1]
  AUC: 925 ng·h/mL
[2]
  bioavailability: 62%
Phosphodiesterase 4
  IC50: 170 nM
[3]
  Cmax: 473 ng/mL
[4]
  half-life: 36 min

## COc1ccc(C(=O)Nc2c(Cl)cncc2Cl)c2[nH]c(C(F)(F)F)nc12
[5]
  inhibition: 43%
Phosphodiesterase 4
  IC50: 120 nM

## COc1ccc(C(=O)Nc2ccncc2Cl)c2cccnc12
Phosphodiesterase 4
  IC50: 110 nM

## COc1ccc(C(=O)Nc2ccncc2)c2cccnc12
Phosphodiesterase 4
  IC50: 1900 nM

## COc1ccc(C(=O)Nc2c(Cl)cncc2Cl)c2c1nc(C(F)(F)F)n2C
[5]
  inhibition: 11%
Phosphodiesterase 4
  IC50: 290 nM

## COc1ccc(C(=O)Nc2c(Cl)cncc2Cl)c2c1nc(C(C)=O)n2C
Phosphodiesterase 4
  IC50: 480 nM
